Target: Human V1b receptor (Homo sapiens (Human), UniProt P47901)
Experiment: Binding Test for V1b Receptor ([3H]AVP, crude membrane preparation of 293FT cells)
Conditions: inhibition of [3H]AVP binding (0.4 to 1 nmol/L), room temperature, 60 minutes
Method: Binding Test for V1b Receptor
Human V1b receptor was transiently expressed in 293FT cells (Invitrogen). The cells were collected and then homogenated in a 15 mmol/L tris-hydrochloric acid buffer (pH 7.4 and containing 2 mmol/L magnesium chloride, 0.3 mmol/L ethylenediaminetetracetic acid, and 1 mmol/L glycol ether diaminetetraacetic acid). The resulting homogenate was centrifuged at 50,000×g at 4° C. for 20 minutes. The precipitate was resuspended in a 75 mmol/L tris-hydrochloric acid buffer (pH 7.4 and containing 12.5 mmol/L magnesium chloride, 0.3 mmol/L ethylenediaminetetracetic acid, 1 mmol/L glycol ether diaminetetraacetic acid, and 250 mmol/L sucrose) to give a crude membrane preparation, which was stored at −80° C. until the binding test was initiated. In the binding test, the crude membrane preparation was diluted with a 50 mmol/L tris-hydrochloric acid buffer (pH 7.4 and containing 10 mmol/L magnesium chloride and 0.1% bovine serum albumin) and mixed with each test compound and [^3H]AVP (final concentration: 0.4 to 1 nmol/L), followed by incubation at room temperature for 60 minutes. The test compound was serially diluted with DMSO so that it would have final concentrations of 0.01 nmol/L to 1 μmol/L at the time of mixing. After the incubation, the mixture was suction filtered through a GF/C filter that was preliminarily impregnated with 0.3% polyethyleneimine. The GF/C filter was dried and after adding a scintillator, the residual radioactivity on the filter was measured using TopCount (PerkinElmer Inc.). The radioactivity in the presence of unlabeled AVP at […] was defined as 0%, and the radioactivity in the absence of unlabeled AVP was defined as 100%. A dose-response curve was plotted from radio activities in the presence of a test compound at various concentrations, and the 50% inhibitory concentration (IC50 value) of the test compound was calculated.

Sequence of Human V1b receptor (P47901 whole entry): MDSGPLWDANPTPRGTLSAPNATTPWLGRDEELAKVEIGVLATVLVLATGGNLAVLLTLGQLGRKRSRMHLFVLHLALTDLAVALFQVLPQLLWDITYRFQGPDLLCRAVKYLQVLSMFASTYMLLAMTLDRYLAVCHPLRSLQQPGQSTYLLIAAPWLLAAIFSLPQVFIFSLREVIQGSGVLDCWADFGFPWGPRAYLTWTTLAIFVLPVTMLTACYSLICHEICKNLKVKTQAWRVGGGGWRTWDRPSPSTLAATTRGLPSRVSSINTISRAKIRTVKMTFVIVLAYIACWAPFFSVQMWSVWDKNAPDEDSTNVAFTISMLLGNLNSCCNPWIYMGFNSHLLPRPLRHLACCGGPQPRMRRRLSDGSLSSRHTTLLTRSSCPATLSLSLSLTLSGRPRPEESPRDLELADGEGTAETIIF

Structure (SMILES)	IC50 [nM]
CC(C)NC(=O)Cn1cc(-c2ccc(CCN3C4CCC3COC4)cn2)nc1-c1cccc(Cl)c1 [Example A-27, 2-[2-(3-chlorophenyl)-4-{5-[2-(3-oxa-8-azabicyclo[3.2.1]oct-8-yl)ethyl]pyridin-2-yl}-1H-imidazol-1-yl]-N-(propan-2-yl)acetamide]	3.6
COc1cccc(-c2nc(-c3ccc(CCN4CCCCC4)cc3)cn2CC(=O)NC(C)C)n1 [Example A-28, 2-[2-(6-methoxypyridin-2-yl)-4-{4-[2-(piperidin-1-yl)ethyl]phenyl}-1H-imidazol-1-yl]-N-(propan-2-yl)acetamide]	10 to 100
COc1cccc(-c2nc(-c3ccc(CCN4CCOCC4)cc3)cn2CC(=O)NC(C)C)n1 [Example A-29, 2-[2-(6-methoxypyridin-2-yl)-4-{4-[2-(morpholin-4-yl)ethyl]phenyl}-1H-imidazol-1-yl]-N-(propan-2-yl)acetamide]	27
CC(C)NC(=O)Cn1cc(-c2ccc(CCN3CCOCC3)nc2)nc1-c1cccc(Cl)c1 [Example A-30, 2-[2-(3-chlorophenyl)-4-{6-[2-(morpholin-4-yl)ethyl]pyridin-3-yl}-1H-imidazol-1-yl]-N-(propan-2-yl)acetamide]	21
CCN(CC)CCc1ccc(-c2cn(CC(=O)NC(C)C)c(-c3ccc(F)c(OC)c3)n2)cc1 [Example A-31, 2-[4-{4-[2-(diethylamino)ethyl]phenyl}-2-(4-fluoro-3-methoxyphenyl)-1H-imidazol-1-yl]-N-(propan-2-yl)acetamide]	10 to 100
CCN(CCOC)CCc1ccc(-c2cn(CC(=O)NC(C)C)c(-c3ccc(F)c(OC)c3)n2)cc1 [Example A-32, 2-[4-(4-{2-[ethyl(2-methoxyethyl)amino]ethyl}phenyl)-2-(4-fluoro-3-methoxyphenyl)-1H-imidazol-1-yl]-N-(propan-2-yl)acetamide]	100 to 1000
CC(C)NC(=O)Cn1cc(-c2cccc(OCCN3CCCCC3)c2)nc1-c1cccc(Cl)c1 [Example A-34, 2-[2-(3-chlorophenyl)-4-{3-[2-(piperidin-1-yl)ethoxy]phenyl}-1H-imidazol-1-yl]-N-(propan-2-yl)acetamide]	100 to 1000
COc1cccc(-c2nc(-c3ccc(CCN4CCOCC4)cc3)cn2CC(=O)NC(C)C)c1 [Example A-38, 2-[2-(3-methoxyphenyl)-4-{4-[2-(morpholin-4-yl)ethyl]phenyl}-1H-imidazol-1-yl]-N-(propan-2-yl)acetamide]	10
CC(C)NC(=O)Cn1cc(-c2ccc(CCN3CCOCC3)cc2)nc1-c1ccc(F)c(Cl)c1 [Example A-39, 2-[2-(3-chloro-4-fluorophenyl)-4-{4-[2-(morpholin-4-yl)ethyl]phenyl}-1H-imidazol-1-yl]-N-(propan-2-yl)acetamide]	1
COc1cncc(-c2nc(-c3ccc(CCN4CCOCC4)cc3)cn2CC(=O)NC(C)C)c1 [Example A-40, 2-[2-(5-methoxypyridin-3-yl)-4-{4-[2-(morpholin-4-yl)ethyl]phenyl}-1H-imidazol-1-yl]-N-(propan-2-yl)acetamide]	10 to 100
COc1cccc(-c2nc(-c3ccc(CCN4C5CCC4COC5)cc3)cn2CC(=O)NC(C)C)c1 [Example A-42, 2-[2-(3-methoxyphenyl)-4-{4-[2-(3-oxa-8-azabicyclo[3.2.1]oct-8-yl)ethyl]phenyl}-1H-imidazol-1-yl]-N-(propan-2-yl)acetamide]	6.3
CC(C)NC(=O)Cn1cc(-c2ccc(CCN3CCOCC3)cc2F)nc1-c1cccc(Cl)c1 [Example A-43, 2-[2-(3-chlorophenyl)-4-{2-fluoro-4-[2-(morpholin-4-yl)ethyl]phenyl}-1H-imidazol-1-yl]-N-(propan-2-yl)acetamide]	0.49
CC(C)NC(=O)Cn1cc(-c2ccc(CC(C)N3CCOCC3)cc2)nc1-c1cccc(Cl)c1 (stereo not drawn) [Example A-44, 2-[2-(3-chlorophenyl)-4-{4-[2-(morpholin-4-yl)propyl]phenyl}-1H-imidazol-1-yl]-N-(propan-2-yl)acetamide]	0.16
CC(C)NC(=O)Cn1cc(-n2ccc(CCN3CCOCC3)cc2=O)nc1-c1cccc(Cl)c1 [Example A-45, 2-[2-(3-chlorophenyl)-4-{4-[2-(morpholin-4-yl)ethyl]-2-oxopyridin-1(2H)-yl}-1H-imidazol-1-yl]-N-(propan-2-yl)acetamide]	34
CC(C)NC(=O)Cn1cc(N2CCN(CCN3CCOCC3)CC2=O)nc1-c1cccc(Cl)c1 [Example A-46, 2-[2-(3-chlorophenyl)-4-{4-[2-(morpholin-4-yl)ethyl]-2-oxopiperazin-1-yl}-1H-imidazol-1-yl]-N-(propan-2-yl)acetamide]	100 to 1000
CC(C)NC(=O)Cn1cc(C(=O)NC2CCC(N3CCOCC3)CC2)nc1-c1cccc(Cl)c1 (stereo not drawn) [Example A-47, 2-(3-chlorophenyl)-N-[4-(morpholin-4-yl)cyclohexyl]-1-[2-oxo-2-(propan-2-ylamino)ethyl]-1H-imidazole-4-carboxamide]	100 to 1000

Now from value to compound:

IC50 [nM]	Structure (SMILES)
14	COc1cc(-c2nc(-c3ccc(CCN4C(C)COCC4C)cc3)cn2CC(=O)NC(C)C)ccc1F (stereo not drawn) [Example A-25, 2-[4-{4-[2-(3,5-dimethylmorpholin-4-yl)ethyl]phenyl}-2-(4-fluoro-3-methoxyphenyl)-1H-imidazol-1-yl]-N-(propan-2-yl)acetamide]
3.4	CC(C)NC(=O)Cn1cc(-c2ccc(CCN3CCOCC3)cn2)nc1-c1cccc(Cl)c1 [Example A-26, 2-[2-(3-chlorophenyl)-4-{5-[2-(morpholin-4-yl)ethyl]pyridin-2-yl}-1H-imidazol-1-yl]-N-(propan-2-yl)acetamide]
100 to 1000	CC(C)NC(=O)Cn1cc(-c2ccc(OCCN3CCCCC3)cc2)nc1-c1cccc(Cl)c1 [Example A-33, 2-[2-(3-chlorophenyl)-4-{4-[2-(piperidin-1-yl)ethoxy]phenyl}-1H-imidazol-1-yl]-N-(propan-2-yl)acetamide]
100 to 1000	CC(C)NC(=O)Cn1cc(-c2cccc(OCCCN3CCCCC3)c2)nc1-c1cccc(Cl)c1 [Example A-35, 2-[2-(3-chlorophenyl)-4-{3-[3-(piperidin-1-yl)propoxy]phenyl}-1H-imidazol-1-yl]-N-(propan-2-yl)acetamide]
20	COc1cccc(-c2nc(-c3ccc(CCN4CCOCC4)cc3)c(C)n2CC(=O)NC(C)C)c1 [Example A-36, 2-[2-(3-methoxyphenyl)-5-methyl-4-{4-[2-(morpholin-4-yl)ethyl]phenyl}-1H-imidazol-1-yl]-N-(propan-2-yl)acetamide]
10 to 100	COc1cccc(-c2nc(-c3ccc(CCN4CCCCC4)cc3)cn2CC(=O)NC(C)C)c1 [Example A-37, 2-[2-(3-methoxyphenyl)-4-{4-[2-(piperidin-1-yl)ethyl]phenyl}-1H-imidazol-1-yl]-N-(propan-2-yl)acetamide]
100 to 1000	COc1cc(-c2nc(-c3ccc(CCN4CCOCC4)cc3)cn2CC(=O)NC(C)C)ccn1 [Example A-41, 2-[2-(2-methoxypyridin-4-yl)-4-{4-[2-(morpholin-4-yl)ethyl]phenyl}-1H-imidazol-1-yl]-N-(propan-2-yl)acetamide]
100 to 1000	CC(C)NC(=O)Cn1cc(C(=O)N(C)C2CCC(N3CCOCC3)CC2)nc1-c1cccc(Cl)c1 (stereo not drawn) [Example A-48, 2-(3-chlorophenyl)-N-methyl-N-[4-(morpholin-4-yl)cyclohexyl]-1-[2-oxo-2-(propan-2-ylamino)ethyl]-1H-imidazole-4-carboxamide]

Reference: patent US9522914B2, “Azole derivative” (TAISHO PHARMACEUTICAL CO., LTD, priority 2011, dated 2016)
